Measured values: patent US7053118B1, “Lactone compounds and methods of use” (Harbor Branch Oceanographic Institution, Inc., priority 2003, dated 2006)

Legend:
Type in all cases: cell-based
[1] = system: PANC-1 human pancreatic cell line; assay: Antiproliferative MTT assay, PANC-1 cell line; conditions: PANC-1 cells, additional 48 hr exposure prior to MTT addition
Description: (§1) Extracts and compounds were analyzed as to their effects on proliferation of A549 human adenocarcinoma, PANC-1 human pancreatic and P388 murine leukemia cell lines. P388 cells were obtained from Dr. R. Camalier, National Cancer Institute, Bethesda, Md., and A549 and PANC-1 cells were obtained from American Type Culture Collection, Rockville, Md. All cell lines were maintained in Roswell Park Memorial Institute (RPMI) medium 1640 supplemented with 10% fetal bovine serum. All cell lines are cultured in plastic tissue culture flasks and kept in an incubator at 37° C. in humidified air containing 5% CO2. Prior to testing, antibiotic-free stock cultures of each of the cell lines were subcultured to 10^6 cells/ml by dilution in fresh growth medium at 2 to 3 day intervals.
(§2) To assess the antiproliferative effects of extracts and compounds against the P388 cell line, 200 μl cultures (96-well tissue culture plates, Nunc, Denmark) are established at 1×10^5 cells/ml in drug-free medium or medium containing the test agent at 10.0, 1.0, 0.10 and 0.010 μg/ml. Solvent for all dilutions ethanol. […]
(§3) Similar procedures are utilized for A549 and PANC-1 cells which require an additional 48 hr exposure prior to MTT addition. Results are expressed as percent inhibition compared to the negative (no drug) control. […]

[2] = system: P388 murine leukemia cell line; assay: Antiproliferative MTT assay, P388 cell line; conditions: P-388 cells, 48-h exposure
Description: as §1
as §2, with “ethanol. All experimental cultures are initiated in medium containing Gentamycin sulfate (50 μg/ml; Schering Corporation, Kenilworth, N.J.).” for “ethanol.”

[3] = system: A549 human adenocarcinoma cell line; assay: Antiproliferative MTT assay, A549 cell line; conditions: A549 cells, additional 48 hr exposure prior to MTT addition
Description: as §1, §2, §3

- Activity (IC50 μg/ml) [1]: 3.78 µg/mL
- Activity (IC50 μg/ml) [2]: 1.09 µg/mL
- Activity (IC50 μg/ml) [3]: 5.0 µg/mL
SMILES: C=C1C[C@@](C)(/C=C/C=C/CCCCCCCC)OC1=O [plakolide A]
